# What was measured:
# Experiment in all cases: KinomeScan kinase profiling
# Assay type in all cases: binding
# AKT1 = molecular target: T1, AKT1 (Homo sapiens, UniProt P31749)
# T1 construct: host or cells: E. coli host derived from BL21 (T7 phage lysate)
# DCAMKL2 = molecular target: T2, DCAMKL2 (Homo sapiens, UniProt Q8N568)
# T2 construct: purchased Ambit Biosciences Corp (KinomeScan); host or cells: T7 phage in E. coli host derived from BL21
# CSNK1G3 = molecular target: T3, CSNK1G3 (Homo sapiens, UniProt Q9Y6M4)
# T3 construct: purchased Ambit Biosciences Corp (KinomeScan); host or cells: T7 phage in E. coli host derived from BL21
# [1] = molecular target: T4, RPS6KA2 (Kin.Dom.-1-N-terminal) (Homo sapiens, UniProt Q15349)
# T4 construct: RPS6KA2 (Kin.Dom.-1-N-terminal); host or cells: E. coli host derived from BL21, T7 phage lysate
# ABL1 (T315I) = molecular target: T5, ABL1 (T315I) (Homo sapiens, UniProt P00519, T315I)
# T5 construct: host or cells: E. coli host derived from BL21 (T7 phage lysate)
# BMPR1A = molecular target: T6, BMPR1A (Homo sapiens, UniProt P36894)
# T6 construct: purchased Ambit Biosciences Corp (KinomeScan); host or cells: E. coli host derived from the BL21 strain, T7 phage
# T6 sequence (P36894 24-532): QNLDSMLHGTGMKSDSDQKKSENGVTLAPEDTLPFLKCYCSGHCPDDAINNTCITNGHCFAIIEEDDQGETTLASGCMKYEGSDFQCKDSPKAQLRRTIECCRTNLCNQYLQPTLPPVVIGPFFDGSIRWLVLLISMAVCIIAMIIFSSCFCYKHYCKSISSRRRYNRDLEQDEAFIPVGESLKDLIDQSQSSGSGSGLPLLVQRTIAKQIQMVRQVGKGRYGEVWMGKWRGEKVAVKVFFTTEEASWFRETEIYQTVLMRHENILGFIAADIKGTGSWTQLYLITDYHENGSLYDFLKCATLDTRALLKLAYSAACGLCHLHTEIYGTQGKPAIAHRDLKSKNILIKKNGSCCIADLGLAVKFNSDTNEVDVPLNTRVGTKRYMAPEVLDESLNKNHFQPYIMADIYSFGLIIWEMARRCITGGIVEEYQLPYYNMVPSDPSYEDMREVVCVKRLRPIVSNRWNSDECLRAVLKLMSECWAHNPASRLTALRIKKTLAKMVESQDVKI
# CAMK2B = molecular target: T7, CAMK2B (Homo sapiens, UniProt Q13554)
# T7 construct: purchased Ambit Biosciences Corp (KinomeScan); host or cells: E. coli host derived from the BL21 strain, T7 phage
# LATS2 = molecular target: T8, LATS2 (Homo sapiens, UniProt Q9NRM7)
# T8 construct: host or cells: T7 phage in E. coli host derived from BL21
# DYRK1B = molecular target: T9, DYRK1B (Homo sapiens, UniProt Q9Y463)
# T9 construct: purchased Ambit Biosciences Corp (KinomeScan); host or cells: T7 phage in E. coli host derived from BL21
# TGFBR1 = molecular target: T10, TGFBR1 (Homo sapiens, UniProt P36897)
# T10 construct: host or cells: E. coli host derived from the BL21 strain, T7 phage lysate
# MLK3 = molecular target: T11, MLK3 (Homo sapiens, UniProt Q16584)
# T11 construct: host or cells: T7 phage in E. coli host derived from BL21
# T11 sequence (Q16584 whole entry): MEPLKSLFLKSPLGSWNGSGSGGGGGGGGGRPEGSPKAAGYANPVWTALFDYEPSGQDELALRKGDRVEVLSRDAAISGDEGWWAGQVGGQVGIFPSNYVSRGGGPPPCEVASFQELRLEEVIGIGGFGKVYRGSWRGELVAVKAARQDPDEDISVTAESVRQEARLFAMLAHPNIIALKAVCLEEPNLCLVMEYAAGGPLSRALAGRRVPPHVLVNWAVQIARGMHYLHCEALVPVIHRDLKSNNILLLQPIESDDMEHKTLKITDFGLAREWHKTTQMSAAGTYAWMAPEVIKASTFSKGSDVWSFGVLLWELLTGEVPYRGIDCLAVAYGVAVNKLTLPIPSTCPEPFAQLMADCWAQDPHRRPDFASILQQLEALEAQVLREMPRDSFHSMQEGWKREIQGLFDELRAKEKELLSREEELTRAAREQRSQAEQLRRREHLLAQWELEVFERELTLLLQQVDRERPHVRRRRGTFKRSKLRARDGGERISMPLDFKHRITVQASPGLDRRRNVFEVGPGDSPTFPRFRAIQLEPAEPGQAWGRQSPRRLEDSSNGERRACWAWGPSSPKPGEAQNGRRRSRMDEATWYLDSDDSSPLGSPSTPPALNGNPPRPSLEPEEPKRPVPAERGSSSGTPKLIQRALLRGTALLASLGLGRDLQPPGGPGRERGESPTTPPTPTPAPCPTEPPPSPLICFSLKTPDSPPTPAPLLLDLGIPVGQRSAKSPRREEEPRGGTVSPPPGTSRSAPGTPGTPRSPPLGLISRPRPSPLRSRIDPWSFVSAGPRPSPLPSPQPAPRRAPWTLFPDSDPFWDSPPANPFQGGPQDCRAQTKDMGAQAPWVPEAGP
# HPK1 = molecular target: T12, HPK1 (Homo sapiens, UniProt Q92918)
# T12 construct: host or cells: E. coli host derived from BL21, infected with T7 phage
# T12 sequence (Q92918 whole entry): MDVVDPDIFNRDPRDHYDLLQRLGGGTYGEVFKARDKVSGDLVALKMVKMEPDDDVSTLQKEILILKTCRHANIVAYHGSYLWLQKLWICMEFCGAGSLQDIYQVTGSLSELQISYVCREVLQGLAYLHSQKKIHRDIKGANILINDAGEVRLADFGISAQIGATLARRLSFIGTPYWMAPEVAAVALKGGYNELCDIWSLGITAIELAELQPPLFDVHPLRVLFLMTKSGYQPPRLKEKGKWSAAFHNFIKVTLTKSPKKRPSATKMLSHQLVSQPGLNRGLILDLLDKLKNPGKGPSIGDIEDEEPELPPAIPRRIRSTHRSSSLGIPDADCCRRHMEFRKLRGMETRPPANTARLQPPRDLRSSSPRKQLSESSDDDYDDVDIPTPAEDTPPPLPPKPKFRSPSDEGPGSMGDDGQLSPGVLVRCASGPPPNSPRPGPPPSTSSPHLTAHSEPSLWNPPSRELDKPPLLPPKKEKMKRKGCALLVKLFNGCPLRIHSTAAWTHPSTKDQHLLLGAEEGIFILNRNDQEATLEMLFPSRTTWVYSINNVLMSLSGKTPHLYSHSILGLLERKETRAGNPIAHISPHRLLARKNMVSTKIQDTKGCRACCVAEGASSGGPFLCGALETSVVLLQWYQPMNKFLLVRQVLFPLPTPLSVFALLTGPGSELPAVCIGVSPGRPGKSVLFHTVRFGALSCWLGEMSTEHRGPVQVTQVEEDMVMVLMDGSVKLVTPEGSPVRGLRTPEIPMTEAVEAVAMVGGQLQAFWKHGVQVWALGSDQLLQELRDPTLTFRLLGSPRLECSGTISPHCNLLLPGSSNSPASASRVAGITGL
# TLK2 = molecular target: T13, TLK2 (Homo sapiens, UniProt Q86UE8)
# T13 construct: purchased Ambit Biosciences Corp (KinomeScan); host or cells: E. coli host derived from the BL21 strain (T7 phage lysate)
# ERK3 = molecular target: T14, ERK3 (Homo sapiens, UniProt Q16659)
# T14 construct: host or cells: E. coli host derived from BL21, T7 phage lysate
# T14 sequence (Q16659 whole entry): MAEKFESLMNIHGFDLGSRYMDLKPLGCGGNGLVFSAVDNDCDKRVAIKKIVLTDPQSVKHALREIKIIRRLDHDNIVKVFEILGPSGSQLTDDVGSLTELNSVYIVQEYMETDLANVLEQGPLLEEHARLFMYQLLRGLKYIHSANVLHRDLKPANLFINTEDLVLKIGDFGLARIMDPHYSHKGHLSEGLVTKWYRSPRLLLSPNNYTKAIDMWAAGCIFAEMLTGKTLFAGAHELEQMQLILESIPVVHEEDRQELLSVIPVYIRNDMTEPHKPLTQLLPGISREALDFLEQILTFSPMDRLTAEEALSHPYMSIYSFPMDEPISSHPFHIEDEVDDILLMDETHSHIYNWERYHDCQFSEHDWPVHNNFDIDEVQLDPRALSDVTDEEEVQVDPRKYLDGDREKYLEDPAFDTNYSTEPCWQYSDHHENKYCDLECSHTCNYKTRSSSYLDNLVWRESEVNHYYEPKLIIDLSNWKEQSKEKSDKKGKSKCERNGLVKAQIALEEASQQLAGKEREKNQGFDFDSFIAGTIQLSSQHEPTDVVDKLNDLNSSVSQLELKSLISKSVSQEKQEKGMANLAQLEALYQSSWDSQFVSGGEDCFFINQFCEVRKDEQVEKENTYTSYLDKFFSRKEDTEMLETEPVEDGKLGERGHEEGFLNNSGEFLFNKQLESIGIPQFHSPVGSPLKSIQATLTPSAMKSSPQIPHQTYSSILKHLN
# Procedure, shortened: (§1)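 Kinases were expressed as T7 phage fusions in a BL21-derived E. coli host and the cleared lysates were used. Ligand beads were blocked with biotin and buffer (1% BSA, 0.05% Tween 20, 1 mM DTT). Compounds came from 40× DMSO stocks, and phage in the eluates was titred by qPCR.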
# STK36 = molecular target: T15, STK36 (Homo sapiens, UniProt Q9NRP7)
# T15 construct: host or cells: E. coli host derived from the BL21 strain, T7 phage lysate
# Procedure, shortened: as §1
# CAMK2A = molecular target: T16, CAMK2A (Homo sapiens, UniProt Q9UQM7)
# T16 construct: purchased Ambit Biosciences Corp (KinomeScan); host or cells: E. coli host derived from the BL21 strain, T7 phage
# Procedure, shortened: as §1
# MLK2 = molecular target: T17, MLK2 (Homo sapiens, UniProt Q02779)
# T17 construct: host or cells: T7 phage in E. coli host derived from BL21
# T17 sequence (Q02779 whole entry): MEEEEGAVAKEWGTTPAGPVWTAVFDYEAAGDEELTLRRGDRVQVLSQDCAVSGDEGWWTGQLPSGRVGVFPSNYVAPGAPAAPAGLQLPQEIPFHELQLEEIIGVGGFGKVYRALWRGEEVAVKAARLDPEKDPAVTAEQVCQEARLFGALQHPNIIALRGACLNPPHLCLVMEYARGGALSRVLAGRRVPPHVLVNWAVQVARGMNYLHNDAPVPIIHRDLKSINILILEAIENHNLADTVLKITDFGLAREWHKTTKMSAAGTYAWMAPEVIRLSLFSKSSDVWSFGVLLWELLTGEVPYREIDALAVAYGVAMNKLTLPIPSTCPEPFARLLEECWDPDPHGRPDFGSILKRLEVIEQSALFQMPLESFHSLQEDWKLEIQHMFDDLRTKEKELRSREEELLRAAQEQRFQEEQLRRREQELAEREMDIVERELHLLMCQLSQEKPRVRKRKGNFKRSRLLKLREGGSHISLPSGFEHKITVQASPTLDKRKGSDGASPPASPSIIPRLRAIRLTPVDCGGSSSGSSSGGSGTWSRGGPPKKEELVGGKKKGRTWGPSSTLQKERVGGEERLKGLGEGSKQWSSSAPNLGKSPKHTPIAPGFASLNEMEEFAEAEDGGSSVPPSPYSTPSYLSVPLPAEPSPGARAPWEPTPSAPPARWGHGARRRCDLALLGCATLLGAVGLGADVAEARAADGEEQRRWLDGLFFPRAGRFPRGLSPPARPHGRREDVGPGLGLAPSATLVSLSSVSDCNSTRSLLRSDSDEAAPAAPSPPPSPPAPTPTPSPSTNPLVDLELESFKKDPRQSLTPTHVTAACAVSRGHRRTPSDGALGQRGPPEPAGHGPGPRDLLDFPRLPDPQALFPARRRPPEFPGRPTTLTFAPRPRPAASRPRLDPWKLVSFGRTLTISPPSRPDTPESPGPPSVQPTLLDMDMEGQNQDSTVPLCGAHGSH
# Procedure, shortened: as §1
# [2] = molecular target: T18, RPS6KA4 (Kin.Dom.-2-C-terminal) (Homo sapiens, UniProt O75676)
# T18 construct: RPS6KA4(KIN.DOM.2); host or cells: E. coli host derived from BL21, T7 phage lysate
# T18 sequence (O75676 411-674 limits assumed): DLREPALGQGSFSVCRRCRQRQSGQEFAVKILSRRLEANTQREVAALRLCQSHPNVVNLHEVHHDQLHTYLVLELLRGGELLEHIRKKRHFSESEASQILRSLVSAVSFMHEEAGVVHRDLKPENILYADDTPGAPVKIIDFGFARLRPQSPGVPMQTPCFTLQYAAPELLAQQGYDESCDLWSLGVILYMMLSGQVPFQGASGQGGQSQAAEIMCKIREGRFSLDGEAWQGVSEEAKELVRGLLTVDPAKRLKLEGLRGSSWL
# Procedure, shortened: as §1
# RIPK4 = molecular target: T19, RIPK4 (Homo sapiens, UniProt P57078)
# T19 construct: host or cells: E. coli host derived from BL21, T7 phage lysate
# T19 sequence (P57078 whole entry): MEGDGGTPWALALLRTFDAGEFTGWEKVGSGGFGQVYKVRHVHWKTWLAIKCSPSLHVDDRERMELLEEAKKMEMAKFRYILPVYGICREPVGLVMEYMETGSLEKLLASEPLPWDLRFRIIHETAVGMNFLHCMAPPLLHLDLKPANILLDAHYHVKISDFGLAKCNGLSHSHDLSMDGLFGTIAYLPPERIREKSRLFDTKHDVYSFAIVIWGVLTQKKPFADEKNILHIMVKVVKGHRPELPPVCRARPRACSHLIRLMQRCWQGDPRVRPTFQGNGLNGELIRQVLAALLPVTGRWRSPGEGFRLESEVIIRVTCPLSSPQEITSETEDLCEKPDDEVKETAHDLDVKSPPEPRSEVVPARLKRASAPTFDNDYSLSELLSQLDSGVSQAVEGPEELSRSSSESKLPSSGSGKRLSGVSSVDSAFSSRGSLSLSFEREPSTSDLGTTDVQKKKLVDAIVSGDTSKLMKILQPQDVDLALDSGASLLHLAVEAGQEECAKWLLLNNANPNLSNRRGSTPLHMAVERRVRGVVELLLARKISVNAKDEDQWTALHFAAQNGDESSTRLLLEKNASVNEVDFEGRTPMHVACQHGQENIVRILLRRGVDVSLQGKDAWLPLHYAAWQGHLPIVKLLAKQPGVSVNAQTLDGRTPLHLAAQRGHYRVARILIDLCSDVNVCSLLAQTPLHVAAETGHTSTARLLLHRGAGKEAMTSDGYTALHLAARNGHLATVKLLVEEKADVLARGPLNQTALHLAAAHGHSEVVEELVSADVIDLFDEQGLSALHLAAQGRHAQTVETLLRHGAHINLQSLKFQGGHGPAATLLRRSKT
# Procedure, shortened: as §1
# LOK = molecular target: T20, LOK (Homo sapiens, UniProt O94804)
# T20 construct: host or cells: E. coli derived from BL21, infected with T7 phage
# Procedure, shortened: as §1
# FLT3 (K663Q) = molecular target: T21, FLT3 (K663Q) (Homo sapiens, UniProt P36888, K663Q)
# T21 construct: host or cells: E. coli host derived from BL21, infected with T7 phage
# Procedure, shortened: as §1
structure (smiles),measurement,setting,value
"C#Cc1cccc(Nc2ncnc3cc(OC)c(OCCCN4CCOCC4)cc23)c1 [NRC-2694, N-(3-ethylnylphenyl)-7-methoxy-6-[3-(4-morpholinyl)propoxy]-4-quinazolinamine]",% Ctrl @ 10000 nM,AKT1,100 % Ctrl
same,% Ctrl @ 10000 nM,DCAMKL2,69 % Ctrl
same,% Ctrl @ 10000 nM,CSNK1G3,61 % Ctrl
same,% Ctrl @ 10000 nM,[1],70 % Ctrl
same,% Ctrl @ 10000 nM,ABL1 (T315I),35 % Ctrl
same,% Ctrl @ 10000 nM,BMPR1A,100 % Ctrl
same,% Ctrl @ 10000 nM,CAMK2B,77 % Ctrl
same,% Ctrl @ 10000 nM,LATS2,93 % Ctrl
same,% Ctrl @ 10000 nM,DYRK1B,66 % Ctrl
same,% Ctrl @ 10000 nM,TGFBR1,83 % Ctrl
same,% Ctrl @ 10000 nM,MLK3,72 % Ctrl
same,% Ctrl @ 10000 nM,HPK1,47 % Ctrl
same,% Ctrl @ 10000 nM,TLK2,82 % Ctrl
same,% Ctrl @ 10000 nM,ERK3,10 % Ctrl
same,% Ctrl @ 10000 nM,STK36,4.6 % Ctrl
same,% Ctrl @ 10000 nM,CAMK2A,63 % Ctrl
same,% Ctrl @ 10000 nM,MLK2,83 % Ctrl
same,% Ctrl @ 10000 nM,[2],8.9 % Ctrl
same,% Ctrl @ 10000 nM,RIPK4,96 % Ctrl
same,% Ctrl @ 10000 nM,LOK,0 % Ctrl
same,% Ctrl @ 10000 nM,FLT3 (K663Q),56 % Ctrl

# Reference: patent publication US9050341B2, “Methods of treating drug resistant and other tumors by administering 6,7-dialkoxy quinazoline derivatives” (NATCO PHARMA LIMITED, priority 2009, dated 2015)
